Values quoted from earlier work as cited in patent publication US20140221306A1 (Santen Pharmaceutical Co. Ltd, priority 2010, published 2014).

Experiments:
[1] = disclosed in Japanese Patent No. 3652707 (PTD 1)
dry eye patients = details: instillation of an ophthalmic solution; Cornea, 23(8), 784-792 (2004)

SMILES: O=c1ccn([C@@H]2O[C@H](COP(=O)(O)OP(=O)(O)OP(=O)(O)OP(=O)(O)OC[C@H]3O[C@@H](n4ccc(=O)[nH]c4=O)C(O)C3O)C(O)C2O)c(=O)[nH]1 (some centres unmarked) [Diquafosol, P^1,P^4-di(uridine-5′)tetraphosphate]
- effect on secretion of tears [1]: effect of stimulating secretion of tears

SMILES: O=c1ccn([C@@H]2O[C@H](COP(=O)([O-])OP(=O)([O-])OP(=O)([O-])OP(=O)([O-])OC[C@H]3O[C@@H](n4ccc(=O)[nH]c4=O)[C@H](O)[C@@H]3O)[C@@H](O)[C@H]2O)c(=O)[nH]1.[Na+].[Na+].[Na+].[Na+] [diquafosol tetrasodium salt]
- corneal epithelium disorder of dry eye patients (dry eye patients): improved corneal epithelium disorder
